According to patent publication US20110152166A1, “METHOD OF MODULATION OF PROTEIN PHOSPHORYLATION-DEPENDENT CONFORMATIONAL TRANSITIONS WITH LOW MOLECULAR WEIGHT COMPOUNDS” (priority 2006, published 2011):
Residue numbers refer to the chain shown, from its start. Read-outs that look alike come from different tables or passages of the source. Ends that are not written are not given here.

What was measured:
Assay in all cases: PDK1 activity assay with T308tide
Type in all cases: biochemical
GST-PDK1 [Arg131Ala] = molecular target: T1, GST-PDK1 [Arg131Ala] (Homo sapiens, UniProt O15530, R131A); conditions: for AC50 / Max. activity: GST-PDK1 [Arg131Ala]
T1 construct: different protein constructs, comprising the full length protein or the catalytic domain alone; made in house; host or cells: HEK293 cells (pEBG-2T-PDK1 mutant)
T1 sequence (O15530 1-556 R131A): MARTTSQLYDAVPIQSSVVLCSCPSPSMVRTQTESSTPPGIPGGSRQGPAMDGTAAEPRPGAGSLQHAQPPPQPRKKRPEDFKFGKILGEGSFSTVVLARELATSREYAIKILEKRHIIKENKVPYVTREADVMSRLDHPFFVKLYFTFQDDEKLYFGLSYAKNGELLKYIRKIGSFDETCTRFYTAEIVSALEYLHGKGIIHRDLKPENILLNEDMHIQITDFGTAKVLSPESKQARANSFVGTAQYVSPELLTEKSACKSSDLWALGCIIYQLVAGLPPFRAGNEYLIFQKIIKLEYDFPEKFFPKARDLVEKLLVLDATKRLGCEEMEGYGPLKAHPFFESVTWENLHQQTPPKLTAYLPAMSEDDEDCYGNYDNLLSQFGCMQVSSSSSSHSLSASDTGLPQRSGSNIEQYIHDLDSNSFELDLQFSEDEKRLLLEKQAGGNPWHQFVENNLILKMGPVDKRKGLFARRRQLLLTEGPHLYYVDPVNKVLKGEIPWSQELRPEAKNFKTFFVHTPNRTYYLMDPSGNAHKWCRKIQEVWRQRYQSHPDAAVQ

PDK1 50-360 = molecular target: T2, PDK1 50-360 (Homo sapiens, UniProt O15530); conditions: for AC50 / Max. activity: PDK1 50-360; for activation of PDK1 CD wt (in words): catalytic domain 50-360 wild type
T2 construct: the catalytic domain of PDK1 (50-359) produced in SF9 insect cells; His-tag (pFastbac-HT, TEV site) (N, cleaved yes); made in house; host or cells: Sf9 insect cells (baculovirus, pFastbac-HT)
T2 sequence (O15530 50-359): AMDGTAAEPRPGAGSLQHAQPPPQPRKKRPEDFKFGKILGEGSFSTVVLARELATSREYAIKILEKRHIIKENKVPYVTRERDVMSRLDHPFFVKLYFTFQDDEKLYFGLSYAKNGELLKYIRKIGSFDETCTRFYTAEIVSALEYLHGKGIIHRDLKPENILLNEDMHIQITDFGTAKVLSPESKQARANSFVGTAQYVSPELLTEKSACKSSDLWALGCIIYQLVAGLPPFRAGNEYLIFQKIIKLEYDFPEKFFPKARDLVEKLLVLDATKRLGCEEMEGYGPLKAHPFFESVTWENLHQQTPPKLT

GST-PDK1 [Lys115Met] = molecular target: T3, GST-PDK1 [Lys115Met] (Homo sapiens, UniProt O15530, K115M)
T3 construct: different protein constructs, comprising the full length protein or the catalytic domain alone; made in house; host or cells: HEK293 cells (pEBG-2T-PDK1 mutant)

GST-PDK1 [Leu155Glu] = molecular target: T4, GST-PDK1 [Leu155Glu] (Homo sapiens, UniProt O15530, L155E); conditions: for AC50: GST-PDK1 [Leu155Glu]
T4 construct: different protein constructs, comprising the full length protein or the catalytic domain alone; made in house; host or cells: HEK293 cells (pEBG-2T-PDK1 mutant)
T4 sequence (O15530 1-556 L155E): T1 sequence (O15530 1-556 R131A) with A131R, L155E

T3 sequence (O15530 whole entry K115M, the tested form may be a part): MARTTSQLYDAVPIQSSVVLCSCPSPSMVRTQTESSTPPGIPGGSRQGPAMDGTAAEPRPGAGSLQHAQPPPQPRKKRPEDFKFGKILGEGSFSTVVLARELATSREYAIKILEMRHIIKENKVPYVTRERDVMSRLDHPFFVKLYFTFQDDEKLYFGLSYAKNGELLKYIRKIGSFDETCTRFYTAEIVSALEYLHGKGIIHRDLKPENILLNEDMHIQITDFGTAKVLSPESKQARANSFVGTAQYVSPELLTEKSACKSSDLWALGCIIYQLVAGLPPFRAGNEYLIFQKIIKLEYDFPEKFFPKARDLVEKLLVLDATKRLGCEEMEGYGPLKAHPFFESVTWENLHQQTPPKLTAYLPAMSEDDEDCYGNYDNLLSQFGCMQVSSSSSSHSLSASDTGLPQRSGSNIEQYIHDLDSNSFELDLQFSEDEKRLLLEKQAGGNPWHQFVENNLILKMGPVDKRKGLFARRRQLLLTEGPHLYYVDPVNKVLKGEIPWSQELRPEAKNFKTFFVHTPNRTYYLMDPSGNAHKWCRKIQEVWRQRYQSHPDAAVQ

| activation of PDK1 mutant (in words) (GST-PDK1 [Arg131Ala]; Arg131 mutated to Ala) | AC50 (GST-PDK1 [Arg131Ala]) [µM] | Max. activity (GST-PDK1 [Arg131Ala]) [U/mg] | AC50 (PDK1 50-360) [µM] | Max. activity (PDK1 50-360) [U/mg] | activation of PDK1 CD wt (in words) (PDK1 50-360) | AC50 (GST-PDK1 [Lys115Met]; read-out: AC50) [µM] | AC50 (GST-PDK1 [Leu155Glu]) | activation of PDK1 mutant (in words) (GST-PDK1 [Leu155Glu]; Leu155 replaced with Glu, constitutively active) | AC50 (GST-PDK1 [Lys115Met]) | Compound |
| --- | --- | --- | --- | --- | --- | --- | --- | --- | --- | --- |
| no longer activated | > 200 | 1.09 ± 0.06 | 38 ± 8 | 3.46 ± 0.19 | activated | > 200 | No Effect | could not be further activated |  | O=C(O)CSC(CC(=O)c1ccc(Cl)cc1)c1ccccc1 (stereo not shown) [Compound 1] |
|  | 3.7 ± 2 | 1.24 ± 0.8 | 0.17 ± 0.09 | 2.62 ± 0.18 | activated |  | No Effect |  | No Effect | REPRILSEEEQEMFRDFDYIADWC [PIFtide, reference compound] |
